Here are results for 22 compounds from PubChem BioAssay (NCI).

Among the test systems are U251 CNS; OVCAR-5 ovarian; A549 NSCLC; HOP-92 NSCLC; HT29 colon; COLO 205 colon; UACC-257 melanoma; KM12 colon; MOLT-4 leukemia.
What all share (assay): growth of human tumour cells (NCI), 48 h

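Interpolation was linear, between the two tested concentrations surrounding the appropriate level; five concentrations were tested over 48 hours in 96-well plates. At the GI50, growth is halved. Definition used: TGI = concentration required for complete inhibition of growth.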

Turning to `COc1cc(Cc2cc(OC)c(OC)c(OC)c2)ccc1O`, the TGI with U251 CNS, with OVCAR-5 ovarian, with A549 NSCLC, with HOP-92 NSCLC, in the experiment with HT29 colon and in the experiment with COLO 205 colon was more than 100 µM each time. For the same compound, the TGI in the experiment with UACC-257 melanoma, in the experiment with KM12 colon and with MOLT-4 leukemia was more than 100 µM in each case.

In the case of `CSc1nc(NC2OC(COC(C)=O)C(OC(C)=O)C(OC(C)=O)C2OC(C)=O)c2c(OC(C)=O)c(C)c(=O)oc2n1` (stereo not drawn), the TGI with U251 CNS, with OVCAR-5 ovarian, in the experiment with A549 NSCLC, with HOP-92 NSCLC, with HT29 colon and with COLO 205 colon was more than 100 µM in each case. For the same compound, the TGI in the experiment with UACC-257 melanoma, in the experiment on KM12 colon and with MOLT-4 leukemia was more than 100 µM each time.

With `O=C1C2=C(CC3C(C2)C3(Br)Br)C(=O)C2=C1CC1C(C2)C1(Br)Br` (stereo not drawn), the TGI with U251 CNS, with OVCAR-5 ovarian, in the experiment with A549 NSCLC, with HOP-92 NSCLC, in the experiment on HT29 colon and in the experiment on COLO 205 colon was more than 100 µM each time. For the same compound, the TGI in the experiment on UACC-257 melanoma, with KM12 colon and in the experiment with MOLT-4 leukemia was more than 100 µM in each case.

In the case of `Cc1cccc(C(C)(C)C)c1NC(=O)CCc1n[nH]c(=S)o1`, the TGI in the experiment on U251 CNS is more than 100 µM; in the experiment on OVCAR-5 ovarian, more than 100 µM; in the experiment on A549 NSCLC it was more than 100 µM; with HOP-92 NSCLC it was more than 100 µM; with HT29 colon it was more than 100 µM; with COLO 205 colon, 47.6 µM. The TGI in the experiment with UACC-257 melanoma, in the experiment on KM12 colon and with MOLT-4 leukemia was more than 100 µM each time.

As for `COC(=O)C(=O)C(C(=O)C(=O)Nc1ccc(C)cc1C)c1nc2ccccc2[nH]c1=O` (stereo not drawn), the TGI with U251 CNS, with OVCAR-5 ovarian, in the experiment with A549 NSCLC, in the experiment on HT29 colon, with COLO 205 colon and in the experiment on UACC-257 melanoma was more than 100 µM each time. Further, the TGI in the experiment on KM12 colon and in the experiment with MOLT-4 leukemia was more than 100 µM each time.

With `COc1ccc(C(=O)O)c(Cc2cccc3ccccc23)c1`, the TGI with U251 CNS, with OVCAR-5 ovarian, with A549 NSCLC, in the experiment on HT29 colon, in the experiment on COLO 205 colon and in the experiment with UACC-257 melanoma was more than 100 µM each time. Besides, the TGI in the experiment on KM12 colon and in the experiment with MOLT-4 leukemia was more than 100 µM in each case.

With `NC1C2(CCCCCC2)NC(=O)C12CCCCCC2` (stereo not drawn), the TGI in the experiment on U251 CNS, with OVCAR-5 ovarian, with A549 NSCLC, in the experiment on HOP-92 NSCLC, with HT29 colon and in the experiment with COLO 205 colon was more than 100 µM in each case. Besides, the TGI in the experiment on UACC-257 melanoma, with KM12 colon and in the experiment on MOLT-4 leukemia was more than 100 µM in each case.

Turning to `CCC(C)(O)c1cn(-c2cccc(S(=O)(=O)O)c2)nn1` (stereo not drawn), the TGI with U251 CNS, with OVCAR-5 ovarian, in the experiment with A549 NSCLC, in the experiment on HOP-92 NSCLC, in the experiment on HT29 colon and with COLO 205 colon was more than 100 µM each time. For the same compound, the TGI with UACC-257 melanoma, in the experiment with KM12 colon and in the experiment with MOLT-4 leukemia was more than 100 µM in each case.

As for `N#Cc1cnsc1`, the TGI with U251 CNS, in the experiment with OVCAR-5 ovarian, in the experiment on A549 NSCLC, in the experiment on HOP-92 NSCLC, in the experiment with HT29 colon and in the experiment with COLO 205 colon was more than 100 µM throughout. For the same compound, the TGI in the experiment on UACC-257 melanoma, with KM12 colon and in the experiment on MOLT-4 leukemia was more than 100 µM in each case.

For the compound `Nc1c(-c2ccc(Br)cc2)[n+]([O-])c2ccccc2[n+]1[O-]`, the TGI in the experiment on U251 CNS, in the experiment on OVCAR-5 ovarian, in the experiment with A549 NSCLC, in the experiment with HOP-92 NSCLC, in the experiment on HT29 colon and in the experiment with COLO 205 colon was more than 100 µM each time. In addition, the TGI in the experiment with UACC-257 melanoma, in the experiment on KM12 colon and with MOLT-4 leukemia was more than 100 µM in each case.

As to `NCCCNCCSSCCCCS(=O)O`, the TGI in the experiment on U251 CNS is more than 100 µM; in the experiment on OVCAR-5 ovarian, more than 100 µM; in the experiment with A549 NSCLC, more than 100 µM; in the experiment on HOP-92 NSCLC, more than 100 µM; in the experiment with HT29 colon it was more than 100 µM; in the experiment with COLO 205 colon, 35.7 µM. The figures for the TGI in the experiment on UACC-257 melanoma and in the experiment with MOLT-4 leukemia were 78.5 µM and 47.1 µM, respectively.

Take `Cc1ccc(NC(=O)C2C(=O)N(c3ccc(C)c(C)c3)C(=O)/C2=N/O)cc1C` (stereo not drawn): the TGI in the experiment with U251 CNS, with OVCAR-5 ovarian, with A549 NSCLC, with HOP-92 NSCLC, in the experiment with HT29 colon and with COLO 205 colon was more than 100 µM in each case. Moreover, the TGI in the experiment on UACC-257 melanoma, in the experiment on KM12 colon and with MOLT-4 leukemia was more than 100 µM each time.

Regarding `CC(C)=[CH][Sb]([Br])([CH]=C(C)C)([CH]=C(C)C)[CH]=C(C)C`, the GI50 in the experiment with U251 CNS was 12.2 µM; in the experiment on A549 NSCLC it was 19.1 µM; in the experiment on HT29 colon, 15.1 µM; with COLO 205 colon, 1.93 µM; in the experiment on UACC-257 melanoma, 4.87 µM; with KM12 colon it was 3.63 µM. The GI50 in the experiment with MOLT-4 leukemia is 18.8 µM. In addition, the TGI in the experiment with U251 CNS was 79.3 µM; with A549 NSCLC, more than 100 µM; in the experiment with HT29 colon it was more than 100 µM; in the experiment with COLO 205 colon it was 5.89 µM; in the experiment on UACC-257 melanoma it was more than 100 µM; in the experiment on KM12 colon, 87.9 µM. In the experiment on MOLT-4 leukemia, this compound gave a TGI of more than 100 µM.

On to `CCOC(=O)c1c(C)n(Cc2ccc(OC)cc2)c2c1cc(O)c1[nH]c3c(c12)CCCC3`, for which the GI50 in the experiment on U251 CNS is 2.31 µM; in the experiment on OVCAR-5 ovarian, 2.39 µM; in the experiment with A549 NSCLC it was 8.71 µM; in the experiment with HOP-92 NSCLC, 2.5 µM; in the experiment on HT29 colon, 12.9 µM; in the experiment with COLO 205 colon it was 0.0865 µM. The GI50 was 1.77 µM in the experiment with UACC-257 melanoma and 2.04 µM in the experiment with KM12 colon. Besides, the TGI was 5.89 µM in the experiment on U251 CNS; 17.5 µM in the experiment with OVCAR-5 ovarian; 71.9 µM in the experiment with A549 NSCLC; 55.4 µM in the experiment on HOP-92 NSCLC; more than 100 µM in the experiment on HT29 colon; 8.35 µM in the experiment on COLO 205 colon. In addition, the TGI with UACC-257 melanoma was 9.66 µM; in the experiment with KM12 colon, 5.43 µM.

Regarding `O=S(O)CCCCSSCCCCSSCCCCS(=O)O`, the TGI in the experiment on U251 CNS is more than 100 µM; with OVCAR-5 ovarian, more than 100 µM; with A549 NSCLC, more than 100 µM; with COLO 205 colon, 83.6 µM; in the experiment with UACC-257 melanoma it was more than 100 µM; in the experiment with KM12 colon it was more than 100 µM. The TGI in the experiment on MOLT-4 leukemia amounted to 43.9 µM.

Regarding `CCOC(=O)NC(=O)c1cn(CCCOC(=O)NCCCCCCNC(=O)OCCCn2c(=O)c(C(=O)NC(=O)OCC)cn(C)c2=O)c(=O)n(C)c1=O`, the TGI in the experiment with U251 CNS, in the experiment with OVCAR-5 ovarian, with A549 NSCLC, with HOP-92 NSCLC, in the experiment on HT29 colon and in the experiment with COLO 205 colon was more than 100 µM in each case. Moreover, the TGI in the experiment with UACC-257 melanoma, with KM12 colon and in the experiment on MOLT-4 leukemia was more than 100 µM each time.

In the case of `COC(=O)CSc1n[nH]c(-c2ccc(O)c([N+](=O)[O-])c2)n1`, the TGI in the experiment with U251 CNS, in the experiment on OVCAR-5 ovarian, in the experiment with A549 NSCLC, with HOP-92 NSCLC, in the experiment on HT29 colon and in the experiment with UACC-257 melanoma was more than 100 µM in each case. The same compound gave a TGI in the experiment with MOLT-4 leukemia of more than 100 µM.

Regarding `CSc1ccc(/C=C2/C[N+](C)(C)C/C(=C/c3ccc(SC)cc3)C2=O)cc1`, the TGI in the experiment on U251 CNS was 7.92 µM; with OVCAR-5 ovarian, 44 µM; in the experiment with A549 NSCLC it was more than 100 µM; in the experiment with HOP-92 NSCLC it was 42.1 µM; with COLO 205 colon, 17.8 µM; in the experiment with UACC-257 melanoma, 37.8 µM. Moreover, the TGI in the experiment with KM12 colon worked out at 15.9 µM; with MOLT-4 leukemia, 67.4 µM.

On to `CCc1cccc(C)c1NC(C)=O`, for which the TGI in the experiment with U251 CNS, with OVCAR-5 ovarian, in the experiment with A549 NSCLC, in the experiment with HT29 colon, in the experiment on UACC-257 melanoma and in the experiment with KM12 colon was more than 100 µM each time. In the experiment with MOLT-4 leukemia, the TGI is more than 100 µM.

As for `N#CCCN(CCC#N)c1ccc(/C=C2\N=C(CN3C(=O)c4ccccc4C3=O)OC2=O)cc1`, the TGI in the experiment with U251 CNS, in the experiment with OVCAR-5 ovarian, in the experiment with A549 NSCLC, in the experiment with HT29 colon, with UACC-257 melanoma and in the experiment with KM12 colon was more than 100 µM in each case. Also, the TGI with MOLT-4 leukemia was more than 100 µM.

As to `CC(C)=CC(=O)N1CCN(C(=O)C=C(C)C)CC1`, the TGI in the experiment with U251 CNS, in the experiment with OVCAR-5 ovarian, with A549 NSCLC, in the experiment on HOP-92 NSCLC, in the experiment on HT29 colon and in the experiment with UACC-257 melanoma was more than 100 µM each time. Moreover, the TGI with KM12 colon and in the experiment with MOLT-4 leukemia was more than 100 µM in each case.

As for `CN(C)C(=S)/N=c1\ss/c(=N\C(=S)N(C)C)n1-c1ccc2c(c1)OCO2`, the TGI in the experiment on U251 CNS, with OVCAR-5 ovarian, with A549 NSCLC, with UACC-257 melanoma and in the experiment with KM12 colon was more than 100 µM each time.
